Assay: mn = molality of the nth substance listed, in mol/kg
Conditions: 100 kPa, Liquid; for viscosity: Capillary tube (Ostwald / Ubbelohde) method; for speed of sound: Frequency=3 MHz, Single path-length method; for mass density: Vibrating tube method

C[C@H](CCC(=O)[O-])[C@H]1CC[C@H]2[C@@H]3[C@H](O)C[C@@H]4C[C@H](O)CC[C@]4(C)[C@H]3C[C@H](O)[C@]12C.[Na+] [sodium cholate] + O
Conditions | mass density [kg/m3] | speed of sound [m/s] | viscosity [mPa·s]
293.15 K, m1 = 0.002 | 998.46 | 1483.6 | 1.004
293.15 K, m1 = 0.004 | 998.67 | 1484.3 | 1.007
293.15 K, m1 = 0.006 | 998.88 | 1484.8 | 1.011
293.15 K, m1 = 0.008 | 999.1 | 1485.3 | 1.016
293.15 K, m1 = 0.01 | 999.32 | 1486 | 1.021
293.15 K, m1 = 0.012 | 999.53 | 1486.7 | 1.025
293.15 K, m1 = 0.014 | 999.76 | 1487.3 | 1.032
293.15 K, m1 = 0.016 | 999.98 | 1487.8 | 1.037
293.15 K, m1 = 0.018 | 1000.2 | 1488.3 | 1.041
293.15 K, m1 = 0.02 | 1000.41 | 1488.8 | 1.044
293.15 K, m1 = 0.022 | 1000.63 | 1489 | 1.048
293.15 K, m1 = 0.024 | 1000.83 | 1489.6 | 1.051
298.15 K, m1 = 0.002 | 997.29 | 1497.5 | 0.893
298.15 K, m1 = 0.004 | 997.5 | 1498 | 0.896
298.15 K, m1 = 0.006 | 997.7 | 1498.6 | 0.899
298.15 K, m1 = 0.008 | 997.91 | 1499.2 | 0.903
298.15 K, m1 = 0.01 | 998.13 | 1499.9 | 0.906
298.15 K, m1 = 0.012 | 998.34 | 1500.5 | 0.911
298.15 K, m1 = 0.014 | 998.56 | 1501 | 0.918
298.15 K, m1 = 0.016 | 998.77 | 1501.6 | 0.922
298.15 K, m1 = 0.018 | 998.97 | 1502 | 0.926
298.15 K, m1 = 0.02 | 999.19 | 1502.3 | 0.93
298.15 K, m1 = 0.022 | 999.39 | 1502.8 | 0.933
298.15 K, m1 = 0.024 | 999.6 | 1503.3 | 0.936
303.15 K, m1 = 0.002 | 995.88 | 1509.8 | 0.8
303.15 K, m1 = 0.004 | 996.08 | 1510.2 | 0.803
303.15 K, m1 = 0.006 | 996.29 | 1510.8 | 0.806
303.15 K, m1 = 0.008 | 996.49 | 1511.3 | 0.809
303.15 K, m1 = 0.01 | 996.7 | 1511.9 | 0.813
303.15 K, m1 = 0.012 | 996.91 | 1512.4 | 0.817
303.15 K, m1 = 0.014 | 997.12 | 1512.9 | 0.823
303.15 K, m1 = 0.016 | 997.34 | 1513.4 | 0.827
303.15 K, m1 = 0.018 | 997.54 | 1513.8 | 0.831
303.15 K, m1 = 0.02 | 997.74 | 1514.2 | 0.835
303.15 K, m1 = 0.022 | 997.94 | 1514.7 | 0.838
303.15 K, m1 = 0.024 | 998.14 | 1515.1 | 0.841
308.15 K, m1 = 0.002 | 994.26 | 1520.5 | 0.722
308.15 K, m1 = 0.004 | 994.46 | 1520.9 | 0.725
308.15 K, m1 = 0.006 | 994.66 | 1521.4 | 0.727
308.15 K, m1 = 0.008 | 994.87 | 1521.9 | 0.73
308.15 K, m1 = 0.01 | 995.08 | 1522.4 | 0.734
308.15 K, m1 = 0.012 | 995.29 | 1522.9 | 0.737
308.15 K, m1 = 0.014 | 995.5 | 1523.4 | 0.742
308.15 K, m1 = 0.016 | 995.7 | 1523.9 | 0.747
308.15 K, m1 = 0.018 | 995.9 | 1524.4 | 0.751
308.15 K, m1 = 0.02 | 996.1 | 1524.8 | 0.755
308.15 K, m1 = 0.022 | 996.29 | 1525.2 | 0.758
308.15 K, m1 = 0.024 | 996.49 | 1525.6 | 0.76
313.15 K, m1 = 0.002 | 992.43 | 1529.5 | 0.655
313.15 K, m1 = 0.004 | 992.63 | 1529.8 | 0.658
313.15 K, m1 = 0.006 | 992.84 | 1530.3 | 0.66
313.15 K, m1 = 0.008 | 993.04 | 1530.8 | 0.663
313.15 K, m1 = 0.01 | 993.24 | 1531.2 | 0.666
313.15 K, m1 = 0.012 | 993.45 | 1531.7 | 0.67
313.15 K, m1 = 0.014 | 993.66 | 1532.2 | 0.675
313.15 K, m1 = 0.016 | 993.85 | 1532.6 | 0.679
313.15 K, m1 = 0.018 | 994.05 | 1533.1 | 0.684
313.15 K, m1 = 0.02 | 994.24 | 1533.5 | 0.686
313.15 K, m1 = 0.022 | 994.45 | 1533.8 | 0.689
313.15 K, m1 = 0.024 | 994.64 | 1534.2 | 0.691
